Data reported in patent US7030257B2, “Metallocenes and processes for their preparation” (Agency for Science, Technology and Research, priority 2004, dated 2006).

Tested on: double-stranded DNA
Assay: Competition experiment against ethidium bromide (EB) for binding to EB-saturated double-stranded DNA, gel electrophoresis fluorescence readout
From the text: A competition experiment was designed to obtain an estimate of the nucleic acid intercalating property of the compound of the invention. The basis of this methodology involves the use of two intercalators, one fluorescent and one non-fluorescent. The fluorescent intercalator first saturates the double-stranded DNA. Then a second intercalator, in this case VFcTMEDA, is introduced into the system with gradual increasing concentration. […] For the competition experiment, the changes in fluorescent intensity were monitored during the displacement of DNA-bound fluorescent molecules by VFcTMEDA through an increasing concentration of the VFcTMEDA molecules in the system. A well-known threading intercalator, ethidium bromide (EB), was chosen as our fluorescent indicator.
Subsequently, VFcTMEDA was studied with respect to its ability to compete against EB for binding to DNA using the same approach. Different amounts of VFcTMEDA were mixed with the EB saturated double-stranded DNA to examine the bind ability. […] Lanes 1 to 5 correspond to different ratios of VFcTMEDA/EB.

vinylferrocene tetramethylethylenediamine [VFcTMEDA]
enhancement of binding constant over EB (Kd of VFcTMEDA relative to EB): ~26 fold
DNA-bound EB replaced (VFcTMEDA/EB molecular ratio 1/5 (second lane)): more than 50%
